Values of other authors as cited in patent publication US10308909B2, “Dried spore germinative compound mixtures” (Envera, LLC, priority 2013, dated 2019).

What was measured:
[1] = test system: Bacillus
[2] = test system: bacterial spores; details: concentrations as low as

Compound	inhibition of Bacillus germination [1]	concentration that inhibits germination [2]
C[C@@H](N)C(=O)O [D-alanine]	powerful inhibitor of Bacillus germination	
Oc1ccccc1 [phenol]		0.2 % (wt./vol)
cresol		0.08 % (wt./vol)
